{
  "source": "paper PMC9185959",
  "about": "“A nutraceutical product, extracted from Cannabis sativa, modulates voltage-gated sodium channel function” (Journal of Cannabis Research, 2022)",
  "assay_in_all_cases": "automated planar patch-clamp, whole-cell peak current",
  "type_in_all_cases": "cell-based",
  "key": {"NaV1.7": {"biological_target": "T1, NaV1.7 (Homo sapiens, UniProt Q15858)", "T1 construct": "gene SCN9A; full-length channel, stably expressed in HEK293T cells; beta subunits not mentioned", "T1 sequence (Q15858 whole entry)": "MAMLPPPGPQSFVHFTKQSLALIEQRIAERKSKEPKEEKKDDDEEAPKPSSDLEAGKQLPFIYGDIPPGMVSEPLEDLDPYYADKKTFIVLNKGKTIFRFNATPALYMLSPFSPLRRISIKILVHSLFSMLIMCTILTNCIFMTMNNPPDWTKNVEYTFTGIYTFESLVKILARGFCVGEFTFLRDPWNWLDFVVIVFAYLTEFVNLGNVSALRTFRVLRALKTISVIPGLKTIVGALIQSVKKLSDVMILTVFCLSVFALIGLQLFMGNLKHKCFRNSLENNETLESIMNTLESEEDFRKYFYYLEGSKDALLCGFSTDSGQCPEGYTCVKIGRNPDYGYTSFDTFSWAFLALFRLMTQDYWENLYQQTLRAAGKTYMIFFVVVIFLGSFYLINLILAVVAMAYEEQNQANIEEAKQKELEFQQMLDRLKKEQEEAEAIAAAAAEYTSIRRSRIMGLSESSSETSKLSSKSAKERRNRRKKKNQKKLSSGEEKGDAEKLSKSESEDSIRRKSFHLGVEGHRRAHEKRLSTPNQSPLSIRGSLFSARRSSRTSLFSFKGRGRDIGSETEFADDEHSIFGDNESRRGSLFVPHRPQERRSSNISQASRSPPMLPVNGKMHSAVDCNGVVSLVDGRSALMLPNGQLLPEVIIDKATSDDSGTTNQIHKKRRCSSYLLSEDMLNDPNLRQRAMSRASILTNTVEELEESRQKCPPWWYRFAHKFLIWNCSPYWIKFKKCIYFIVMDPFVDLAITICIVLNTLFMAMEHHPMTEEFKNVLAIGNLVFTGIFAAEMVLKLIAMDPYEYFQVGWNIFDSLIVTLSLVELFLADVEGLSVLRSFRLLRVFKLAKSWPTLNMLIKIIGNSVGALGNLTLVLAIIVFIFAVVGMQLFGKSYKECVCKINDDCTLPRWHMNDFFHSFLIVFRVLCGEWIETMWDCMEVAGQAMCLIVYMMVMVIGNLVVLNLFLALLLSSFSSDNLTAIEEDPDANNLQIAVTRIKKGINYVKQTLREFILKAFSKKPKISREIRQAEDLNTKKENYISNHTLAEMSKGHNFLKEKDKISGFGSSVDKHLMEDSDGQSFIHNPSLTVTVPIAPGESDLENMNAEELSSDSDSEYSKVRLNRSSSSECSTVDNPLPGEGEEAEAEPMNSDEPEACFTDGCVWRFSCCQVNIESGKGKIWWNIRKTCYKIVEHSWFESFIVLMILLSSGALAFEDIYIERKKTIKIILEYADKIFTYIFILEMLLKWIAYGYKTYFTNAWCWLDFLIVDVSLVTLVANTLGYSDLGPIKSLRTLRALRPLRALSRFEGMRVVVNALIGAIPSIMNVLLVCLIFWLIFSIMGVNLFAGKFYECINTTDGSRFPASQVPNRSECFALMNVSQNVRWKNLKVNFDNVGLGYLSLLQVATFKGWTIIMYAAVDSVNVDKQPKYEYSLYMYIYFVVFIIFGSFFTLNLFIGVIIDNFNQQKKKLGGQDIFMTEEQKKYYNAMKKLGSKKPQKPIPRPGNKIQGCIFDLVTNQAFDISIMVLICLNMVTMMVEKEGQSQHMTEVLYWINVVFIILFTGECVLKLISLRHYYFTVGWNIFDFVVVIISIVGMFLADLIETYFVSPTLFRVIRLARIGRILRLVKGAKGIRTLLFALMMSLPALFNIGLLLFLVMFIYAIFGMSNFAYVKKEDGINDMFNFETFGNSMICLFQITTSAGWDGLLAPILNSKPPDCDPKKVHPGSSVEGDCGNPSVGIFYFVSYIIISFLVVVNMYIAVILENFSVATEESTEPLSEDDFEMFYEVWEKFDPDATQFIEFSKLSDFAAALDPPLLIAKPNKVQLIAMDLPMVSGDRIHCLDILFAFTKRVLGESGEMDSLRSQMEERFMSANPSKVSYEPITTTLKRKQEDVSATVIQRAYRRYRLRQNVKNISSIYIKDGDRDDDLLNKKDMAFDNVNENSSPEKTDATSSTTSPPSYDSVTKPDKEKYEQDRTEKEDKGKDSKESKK", "settings": "holding -80 mV, 200 ms at -120 mV then test pulse to 0 mV every 2 s; 5 min exposure, cumulative 0.1-100 μM; 0.1% DMSO; pH 7.4; 27°C; n=7", "from_the_text": "automated planar patch-clamp, whole-cell peak current on NaV1.7"}, "NaV1.2": {"biological_target": "T2, NaV1.2 (Homo sapiens, UniProt Q99250)", "T2 construct": "gene SCN2A; full-length channel, stably expressed in HEK293T cells; splice form and beta subunits not mentioned", "T2 sequence (Q99250 whole entry, canonical isoform)": "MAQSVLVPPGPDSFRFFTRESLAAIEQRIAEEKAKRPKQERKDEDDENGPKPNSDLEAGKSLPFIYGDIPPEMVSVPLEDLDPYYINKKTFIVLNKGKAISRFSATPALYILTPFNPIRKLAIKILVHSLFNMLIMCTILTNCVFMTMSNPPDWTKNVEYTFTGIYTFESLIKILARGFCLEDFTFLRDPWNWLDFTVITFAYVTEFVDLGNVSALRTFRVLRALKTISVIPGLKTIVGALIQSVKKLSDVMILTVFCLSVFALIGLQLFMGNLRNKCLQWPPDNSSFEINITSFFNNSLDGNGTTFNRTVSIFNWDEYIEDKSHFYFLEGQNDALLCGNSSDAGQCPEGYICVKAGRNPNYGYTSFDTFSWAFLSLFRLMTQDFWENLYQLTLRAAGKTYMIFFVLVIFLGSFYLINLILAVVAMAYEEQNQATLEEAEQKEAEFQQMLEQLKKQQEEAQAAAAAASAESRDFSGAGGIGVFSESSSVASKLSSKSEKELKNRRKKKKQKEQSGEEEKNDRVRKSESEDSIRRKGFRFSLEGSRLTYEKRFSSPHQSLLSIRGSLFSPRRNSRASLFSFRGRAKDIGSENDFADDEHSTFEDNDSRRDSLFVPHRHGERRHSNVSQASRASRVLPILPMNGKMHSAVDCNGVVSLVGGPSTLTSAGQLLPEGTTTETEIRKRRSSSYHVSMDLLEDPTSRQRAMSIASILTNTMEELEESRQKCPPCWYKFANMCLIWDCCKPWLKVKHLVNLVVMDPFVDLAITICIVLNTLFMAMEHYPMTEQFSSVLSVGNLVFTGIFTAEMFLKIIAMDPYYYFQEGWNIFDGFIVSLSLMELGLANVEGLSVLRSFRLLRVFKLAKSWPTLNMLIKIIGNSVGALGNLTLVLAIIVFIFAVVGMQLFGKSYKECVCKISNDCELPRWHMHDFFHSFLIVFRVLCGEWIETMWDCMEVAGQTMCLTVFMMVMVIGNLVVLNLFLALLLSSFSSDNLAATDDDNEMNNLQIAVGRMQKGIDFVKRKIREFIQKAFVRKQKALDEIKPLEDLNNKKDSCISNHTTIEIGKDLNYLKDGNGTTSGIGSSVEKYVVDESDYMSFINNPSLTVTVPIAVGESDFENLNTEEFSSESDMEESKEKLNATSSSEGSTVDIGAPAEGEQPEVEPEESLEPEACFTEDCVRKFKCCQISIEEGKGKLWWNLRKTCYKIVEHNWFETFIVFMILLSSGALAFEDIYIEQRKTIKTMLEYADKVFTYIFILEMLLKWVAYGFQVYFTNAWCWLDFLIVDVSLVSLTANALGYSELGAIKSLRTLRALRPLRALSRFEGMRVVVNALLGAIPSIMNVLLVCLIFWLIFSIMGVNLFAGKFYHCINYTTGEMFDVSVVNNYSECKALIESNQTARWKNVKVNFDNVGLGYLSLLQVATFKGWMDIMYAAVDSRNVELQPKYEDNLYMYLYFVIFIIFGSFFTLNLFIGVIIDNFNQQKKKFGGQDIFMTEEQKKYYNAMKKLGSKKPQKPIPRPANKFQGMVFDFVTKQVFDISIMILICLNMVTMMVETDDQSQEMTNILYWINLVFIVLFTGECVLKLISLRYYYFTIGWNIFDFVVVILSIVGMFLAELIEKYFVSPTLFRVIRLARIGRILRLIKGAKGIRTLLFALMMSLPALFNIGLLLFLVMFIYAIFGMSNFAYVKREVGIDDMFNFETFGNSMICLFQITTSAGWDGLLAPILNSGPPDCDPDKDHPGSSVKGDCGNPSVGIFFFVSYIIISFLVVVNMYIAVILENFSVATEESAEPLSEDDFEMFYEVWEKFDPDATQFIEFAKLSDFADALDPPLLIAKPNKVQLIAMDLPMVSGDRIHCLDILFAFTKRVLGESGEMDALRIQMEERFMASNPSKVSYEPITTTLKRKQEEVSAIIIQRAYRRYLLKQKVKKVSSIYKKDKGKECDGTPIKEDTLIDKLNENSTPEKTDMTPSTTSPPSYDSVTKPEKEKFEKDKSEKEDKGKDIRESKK", "settings": "holding -80 mV, 200 ms at -120 mV then test pulse to 0 mV every 2 s; 5 min exposure, cumulative 0.1-100 μM; 0.1% DMSO; pH 7.4; 27°C; n=6", "from_the_text": "automated planar patch-clamp, whole-cell peak current on NaV1.2"}, "NaV1.1": {"biological_target": "T3, NaV1.1 (Homo sapiens, UniProt P35498)", "T3 construct": "gene SCN1A; full-length channel, stably expressed in HEK293T cells; beta subunits not mentioned", "settings": "holding -80 mV, 200 ms at -120 mV then test pulse to 0 mV every 2 s; 5 min exposure, cumulative 0.1-100 μM; 0.1% DMSO; pH 7.4; 27°C; n=9", "from_the_text": "automated planar patch-clamp, whole-cell peak current on NaV1.1"}},
  "data": [
    {"compound": "C=C(C)[C@@H]1CCC(C)=C[C@H]1c1c(O)cc(CCCCC)cc1O", "note": "[CBD]", "values": [
      {"measurement": "IC50", "setting": "NaV1.7", "result": "11.9 ± 2.2", "unit": "µM"},
      {"measurement": "IC50", "setting": "NaV1.2", "result": "18.4 ± 2.6", "unit": "µM"},
      {"measurement": "IC50", "setting": "NaV1.1", "result": "18.5 ± 2.2", "unit": "µM"}
    ]}
  ]
}
